Data from patent publication US11466020B2, “Compounds and compositions for inhibition and elimination of Zika infection and uses for same” (Cornell University, priority 2017, dated 2022).
“Also recorded” adds a separate entry of the source. Counter-ions that a name gives are not always drawn.

Tested on: ZIKV (MR766 strain)
Assay: ZIKV infection of human forebrain organoids (MR766)
Type: cell-based, Zika virus
Experimental: (A) Experimental design for evaluating the therapeutic efficacy and safety of HH using forebrain organoids. D20 or D40 Forebrain organoids were exposed to ZIKV (5×10^5 PFU/ml) or mock-treated for 24 h. After removal of ZIKV-containing medium, fresh virus-free medium plus compounds were added. Organoids were analyzed at day 4 (D20+4) or day 18 (D20+18) after initial ZIKV infection. (B and C) HH eliminates ZIKV infection in short-term cultures. Immunocytochemistry analysis (B) and the quantification of infection rate (C) of mock, DMSO or 25 μM HH treated ZIKV-infected D20 organoids (n=3). Scale bars, 100 μm. D20+4 organoids mainly consist of SOX2^+ progenitors and are highly infiltrated by ZIKV. […] (D) qRT-PCR analysis of total ZIKV vRNA in the supernatant of DMSO or 25 μM HH treated ZIKV-infected D20 and D40 organoids (n=3). (E) HH rescues ZIKV-related proliferation and apoptosis defects in D20+4 organoids. The number of proliferating cells (Ki67^+) is decreased and the number of apoptotic cells (CAS^+) is increased in ZIKV-infected organoids compared to mock and 25 μM HH treated organoids (n=3). Scale bars, 100 μm. […] Scale bars, 50 μm. […] Quantifications show average organoid perimeter of D20+18 organoids (H). Values represent mean±SEM (n=3). Scale bars, 1 mm. (I) HH rescues ZIKV-induced structural defects in forebrain organoids. Mock treated organoids contain clearly defined progenitor (SOX2) and neuronal (TUJ1) zones. Neurons migrate out of progenitor zones and settle at the edge of the organoid, while progenitor zones occupy more interior regions of the organoid. In contrast, D20+18 ZIVK infected organoids lack clearly defined progenitor and neuronal zones, which appear to intermix. Both neuron and progenitor zones appear to settle at the edge of the organoid. HH rescues the well-delineated structure of forebrain organoids (n=3). Scale bars, 100 μm. p values were calculated by unpaired two-tailed Student's t-test. *p<0.05, **p<0.01 and ***p<0.001.
D20 forebrain organoids were inoculated with ZIKV (MR766 strain) for 24 h, followed by treatment with 15 μM AQ or 25 μM HH for 3 days (D20+4, short-term) or 17 days (D20+18, long-term). Organoids were analyzed for ZIKV infection, cell proliferation, and apoptosis (FIG. 3A).
Generation and culture of human forebrain organoids. To induce forebrain organoid differentiation, H9 hESC line (WA-09, WiCell) hPSCs were dissociated to single cells using EDTA, and 9000 cells were reaggregated using low-adhesion V-bottom 96 well plates (Wako) in Essential8 Medium (Fisher Scientific) with 10 μM Y-27632 (Tocris Biosciences). After 24 h (day 0), medium was changed to Essential6 (Fischer Scientific) supplemented with 10 μM SB431542 (Tocris Biosciences), 500 nM LDN193189 (Stem Cell Technologies), and 2 μM XAV939 (Tocris Biosciences) until day 4. […]

For `CCN(CC)Cc1cc(Nc2ccnc3cc(Cl)ccc23)ccc1O` [AQ, amodiaquine dihydrochloride dihydrate], which “ZIKV infection in D20 organoids” value (15 μM AQ, D20+4, dihydrochloride dihydrate) is on record?
Its value is “suppresses ZIKV infection; also recorded: reduces ZIKV infection”.

With `CN1CCC2=C[C@H](O)[C@H]3OC(=O)c4cc5c(cc4[C@H]3[C@@H]21)OCO5` [HH, hippeastrine hydrobromide] as the molecule, how does the “total ZIKV vRNA level in supernatant from D20+4 organoids” value (25 μM HH) read?
The value was “suppresses total ZIKV vRNA level”.

What about the “ZIKV infection rate in D20+4 forebrain organoids” value (25 μM HH, 3 day treatment, hydrobromide) of the same molecule?
Its value is “undetectable levels; also recorded: below the detection limit”.

And the “ZIKV infection in D20+18 organoids (long-term)” value (HH treated, 18 days after infection, hydrobromide)?
Its value is “devoid of any detectable ZIKV; also recorded: suppressed any detectable ZIKV infection”.
